Test results as given in patent US20060058260A1, “Combination therapy with gemcitabine and zd6126” (priority 2002, published 2006).
Several values for one entry are separate records, joined by “and”; a condition that tells them apart may be missing. Equal entries are not always repeated. Structures can show the parent of a compound that is named as a salt.

Key:
[1] = Body weight in the orthotopic pancreatic tumour model in nude mice; format: in vivo; conditions: 25 days after tumour cell injection; gemcitabine 100 mg/kg i.p. twice weekly, ZD6126 75 mg/kg i.p. daily 5 days per week
Procedure: (§1) Nude mice (n=8 to 10 per group) were treated 9 days after injection of 1×10^6 L3.6pl cells into the pancreas, with gemcitabine alone (100 mg/kg by intraperitoneal injection (i.p.) twice weekly on treatment days 2, 5, 9, 12), ZD6126 alone (75 mg/kg i.p. daily for 5 days per week on treatment days 1-5 and 8-12), or a combination of both agents ie gemcitabine (100 mg/kg i.p. twice weekly) and ZD6126 (75 mg/kg i.p. daily for 5 days per week). Thus the combination group received ZD6126 on treatment days 1-5 and 8-12 and gemcitabine on treatment days 2 and 5 and 9 and 12. On the days where both agents were given, gemcitabine was dosed at least 1 hour before ZD6126. A control group of 10 mice received intraperitoneal injections of an equivalent volume of saline according to the same treatment schedule as the combination group. The animals were sacrificed 25 days after tumour cell injection.

L3.6pl cells = assay: Primary pancreatic tumour growth and metastases growing orthotopically in nude mice; format: in vivo; conditions: gemcitabine 100 mg/kg i.p. twice weekly, ZD6126 75 mg/kg i.p. daily 5 days per week; for Liver Met: animals with liver metastases / animals in group; for Liver Met / LN Met / Peritoneal Carcinosis / Tumour Weight Average ± std dev: 25 days after tumour cell injection; for LN Met: animals with lymph node metastases / animals in group; for Incidence Pancreas: animals with pancreatic tumours / animals in group, sacrificed 25 days after tumour cell injection; for Peritoneal Carcinosis: animals with peritoneal carcinosis / animals in group; for Tumour Weight Average ± std dev: primary pancreatic tumour weight
Procedure: as §1, with “Model to Investigate Effects of ZD6126 and Gemcitabine Therapy on Primary Pancreatic Tumour Growth and Metastases Growing Orthotopically in Nude Mice Nude” for “Nude”, “injection. The incidence of pancreatic tumours, liver metastases, lymph node metastases and peritoneal carcinosis was evaluated. The primary pancreatic tumour weight was measured. All macroscopically enlarged lymph nodes and liver nodules were confirmed by histopathology (H&E staining).” for “injection.”

Q: Which results are given for `Nc1ccn([C@@H]2O[C@H](CO)[C@@H](O)C2(F)F)c(=O)n1` [Gemcitabine, 2′-deoxy-2′,2′-difluorocytidine monohydrochloride (β-isomer)]?
A: Body Weight Average ± std dev [1]: 19.1 ± 2.2 g; Liver Met (L3.6pl cells): 2/10; LN Met (L3.6pl cells): 10/10; Incidence Pancreas (L3.6pl cells): 10/10; Peritoneal Carcinosis (L3.6pl cells): 1/10; Tumour Weight Average ± std dev (L3.6pl cells): 687 ± 157 mg; Tumour Weight Average ± std dev (L3.6pl cells; listed as gemcitabine): 687 mg

Q: What does the source list for `COc1cc2c(c(OC)c1OC)-c1ccc(OP(=O)(O)O)cc1[C@@H](NC(C)=O)CC2` [ZD6126, N-acetylcolchinol-O-phosphate]?
A: Body Weight Average ± std dev [1]: 18.5 ± 1.9 g; Liver Met (L3.6pl cells): 1/8; LN Met (L3.6pl cells): 2/8; Incidence Pancreas (L3.6pl cells): 8/8; Peritoneal Carcinosis (L3.6pl cells): 0/8; Tumour Weight Average ± std dev (L3.6pl cells): 541 mg and 541 ± 201 mg
